According to ChEMBL document CHEMBL5338727, “From (Tool)Bench to Bedside: The Potential of Necroptosis Inhibitors” (J Med Chem, 2023):
pEC50, pIC50, pKd: −log10 of the molar value. Where “and” joins values, the source holds several entries; their conditions need not be identical. Equal values may be shown once.

Columns and labels:
[1] = target: Receptor-interacting serine/threonine-protein kinase 2 (Homo sapiens) (UniProt O43353); assay: Inhibition of RIPK2 (unknown origin) at 1 uM relative to control
[2] = target: T1, Receptor-interacting serine/threonine-protein kinase 1 (Homo sapiens, UniProt Q13546); assay: Binding affinity to RIPK1 (unknown origin) by ADP-GlO assay
T1 sequence (Q13546 whole entry): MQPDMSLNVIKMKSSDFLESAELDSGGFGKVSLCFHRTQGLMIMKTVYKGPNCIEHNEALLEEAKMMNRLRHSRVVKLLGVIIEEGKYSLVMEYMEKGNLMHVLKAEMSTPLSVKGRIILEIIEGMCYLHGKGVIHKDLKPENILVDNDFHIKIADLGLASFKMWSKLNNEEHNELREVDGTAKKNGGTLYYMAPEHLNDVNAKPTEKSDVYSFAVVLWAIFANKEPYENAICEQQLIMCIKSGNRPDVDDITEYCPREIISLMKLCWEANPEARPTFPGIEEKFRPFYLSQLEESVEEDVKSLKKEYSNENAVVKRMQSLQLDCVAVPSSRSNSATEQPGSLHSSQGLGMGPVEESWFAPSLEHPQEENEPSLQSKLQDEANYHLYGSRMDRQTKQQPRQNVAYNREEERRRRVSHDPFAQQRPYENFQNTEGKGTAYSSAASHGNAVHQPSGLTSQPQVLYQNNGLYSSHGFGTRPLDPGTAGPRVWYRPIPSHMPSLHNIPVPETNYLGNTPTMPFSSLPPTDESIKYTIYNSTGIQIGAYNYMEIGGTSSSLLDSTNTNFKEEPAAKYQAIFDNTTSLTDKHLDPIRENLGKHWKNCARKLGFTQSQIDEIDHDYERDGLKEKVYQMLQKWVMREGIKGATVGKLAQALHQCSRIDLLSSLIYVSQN

[3] = Clearance in C57BL/6 mouse plasma at 5 mg/kg, iv; format: ADME, organism-based
[4] = Half life in C57BL/6 mouse plasma at 5 mg/kg, iv; format: ADME, organism-based
[5] = Volume of distribution in C57BL/6 mouse plasma at 5 mg/kg, iv; format: ADME, organism-based
HT-29 = assay: Anti-necroptotic activity in human HT-29 cells assessed as inhibition of T/S/Z induced necroptosis by CellTiter-Glo Luminescent Cell Viability assay; format: functional, cell-based
Jurkat [6] = assay: Anti-necroptotic activity in FADD null human Jurkat cells assessed as inhibition of T/S/Z induced necroptosis by CellTiter-Glo Luminescent Cell Viability assay; format: functional, cell-based
[7] = Anti-necroptotic activity in mouse BMDM cells assessed as inhibition of TNF/zVAD.fmk induced necroptosis pretreated for 30 mins measured after 19 to 21 hrs by CellTiter-Glo Luminescent Cell Viability assay
[8] = target: T2, Receptor-interacting serine/threonine-protein kinase 3 (Homo sapiens, UniProt Q9Y572); assay: Inhibition of human RIPK3 using MBP as substrate by [gamma33-ATP] based radiometric assay
[9] = target: T2, Receptor-interacting serine/threonine-protein kinase 3; assay: Inhibition of RIPK3 (unknown origin) expressed in NIH3T3 cells assessed as inhibition of dimerizer-induced pMLKL level by Western blot analysis; format: cell-based
[10] = AUC (last) in 2 hrs fasted CD-1 mouse at 3 mg/kg, po; format: ADME, organism-based; set-up: dose 3 mg/kg, route po; details: in vivo
[11] = Volume of distribution at steady state in 2 hrs fasted CD-1 mouse at 3 mg/kg, po; format: ADME, organism-based; details: in vivo
[12] = Clearance in 2 hrs fasted CD-1 mouse at 3 mg/kg, po; format: ADME, organism-based; details: in vivo
[13] = Oral bioavailability in 2 hrs fasted CD-1 mouse at 3 mg/kg; format: ADME, organism-based; details: in vivo
[14] = Anti-necroptotic activity in mouse dermal fibroblast assessed as inhibition in T/S/Q induced necroptosis measured by flow cytometry; format: functional, cell-based
Jurkat [15] = assay: Anti-necroptotic activity in FADD-deficient human Jurkat cells assessed as reduction in cell growth preincubated for 30 mins followed by TNFalpha stimulation incubated overnight by CellTiter-Glo assay; format: functional, cell-based
CYP3A4 = CYP3A4 (Homo sapiens, UniProt P08684); assay: Inhibition of CYP3A4 (unknown origin) at 10 uM; format: ADME
CYP2D6 = CYP2D6 (Homo sapiens, UniProt P10635); assay: Inhibition of CYP2D6 (unknown origin) at 10 uM; format: ADME
CYP1A2 = target: T3, CYP1A2 (Homo sapiens, UniProt P05177); assay: Inhibition of CYP1A2 (unknown origin) at 10 uM; format: ADME
T3 sequence (P05177 whole entry): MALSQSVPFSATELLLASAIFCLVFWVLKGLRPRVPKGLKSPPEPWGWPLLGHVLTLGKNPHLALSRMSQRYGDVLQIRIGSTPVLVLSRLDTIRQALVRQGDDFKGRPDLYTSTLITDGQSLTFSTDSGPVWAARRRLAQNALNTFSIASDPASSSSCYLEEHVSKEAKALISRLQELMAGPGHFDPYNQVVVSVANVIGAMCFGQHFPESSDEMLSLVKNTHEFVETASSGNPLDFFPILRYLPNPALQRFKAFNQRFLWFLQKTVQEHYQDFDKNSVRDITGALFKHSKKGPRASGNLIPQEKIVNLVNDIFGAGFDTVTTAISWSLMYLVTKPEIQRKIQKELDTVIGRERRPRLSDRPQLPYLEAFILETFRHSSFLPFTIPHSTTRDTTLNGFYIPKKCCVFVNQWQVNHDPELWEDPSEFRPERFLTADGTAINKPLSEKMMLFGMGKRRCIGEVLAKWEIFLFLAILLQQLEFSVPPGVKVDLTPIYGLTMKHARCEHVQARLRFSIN

CYP2C9 = CYP2C9 (Homo sapiens, UniProt P11712); assay: Inhibition of CYP2C9 (unknown origin) at 10 uM; format: ADME
CYP2C19 = CYP2C19 (Homo sapiens, UniProt P33261); assay: Inhibition of CYP2C19 (unknown origin) at 10 uM; format: ADME
[16] = target: Voltage-gated inwardly rectifying potassium channel KCNH2 (Homo sapiens, UniProt Q12809); assay: Inhibition of hERG at 10 uM; format: toxicity
[17] = Metabolic stability in mouse liver microsomes assessed as intrinsic clearance; format: ADME, Microsome; details: read-out: CLH
[18] = Metabolic stability in rat liver microsomes assessed as intrinsic clearance; format: ADME, Microsome; details: read-out: CLH
[19] = Metabolic stability in mouse liver microsomes assessed as half life; format: ADME, Microsome
[20] = Metabolic stability in rat liver microsomes assessed as half life; format: ADME, Microsome
[21] = Half life in ICR mouse at 2 mg/kg, iv; format: ADME, organism-based; details: in vivo
[22] = AUC in ICR mouse at 10 mg/kg, po; format: ADME, organism-based; set-up: dose 10 mg/kg, route po; details: in vivo
[23] = Volume of distribution in ICR mouse at 2 mg/kg, iv; format: ADME, organism-based; details: in vivo
[24] = Clearance in ICR mouse at 2 mg/kg, iv; format: ADME, organism-based; details: in vivo

T2 sequence (Q9Y572 whole entry): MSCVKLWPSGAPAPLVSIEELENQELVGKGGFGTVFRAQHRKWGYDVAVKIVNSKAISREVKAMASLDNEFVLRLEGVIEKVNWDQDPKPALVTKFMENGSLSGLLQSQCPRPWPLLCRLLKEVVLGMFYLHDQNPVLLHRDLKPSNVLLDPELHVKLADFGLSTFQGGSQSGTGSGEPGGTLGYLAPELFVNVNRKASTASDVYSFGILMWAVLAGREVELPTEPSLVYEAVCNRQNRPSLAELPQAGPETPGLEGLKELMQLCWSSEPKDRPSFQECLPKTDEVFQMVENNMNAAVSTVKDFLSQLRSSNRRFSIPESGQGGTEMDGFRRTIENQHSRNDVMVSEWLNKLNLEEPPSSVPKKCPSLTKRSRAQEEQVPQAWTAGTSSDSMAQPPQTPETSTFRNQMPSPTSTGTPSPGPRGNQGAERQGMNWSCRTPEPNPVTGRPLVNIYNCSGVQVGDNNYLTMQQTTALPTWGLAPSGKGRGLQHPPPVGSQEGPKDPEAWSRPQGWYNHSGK
Sequence of Receptor-interacting serine/threonine-protein kinase 2 (Homo sapiens) (O43353 whole entry): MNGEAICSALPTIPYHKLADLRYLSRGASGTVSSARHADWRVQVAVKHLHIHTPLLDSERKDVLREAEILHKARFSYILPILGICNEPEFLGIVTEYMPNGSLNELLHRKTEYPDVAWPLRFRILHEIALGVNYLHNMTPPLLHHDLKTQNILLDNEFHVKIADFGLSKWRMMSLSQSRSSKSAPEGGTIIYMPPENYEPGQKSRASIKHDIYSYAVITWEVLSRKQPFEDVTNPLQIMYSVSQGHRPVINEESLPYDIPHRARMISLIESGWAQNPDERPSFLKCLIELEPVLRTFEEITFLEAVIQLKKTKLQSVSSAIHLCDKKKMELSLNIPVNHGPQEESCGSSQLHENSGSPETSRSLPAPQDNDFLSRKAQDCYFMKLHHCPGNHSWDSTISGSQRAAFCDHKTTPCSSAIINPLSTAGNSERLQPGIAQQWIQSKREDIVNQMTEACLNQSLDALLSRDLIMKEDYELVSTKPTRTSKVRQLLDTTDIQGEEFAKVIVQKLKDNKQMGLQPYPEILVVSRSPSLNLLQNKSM
Sequence of CYP2C9 (P11712 whole entry): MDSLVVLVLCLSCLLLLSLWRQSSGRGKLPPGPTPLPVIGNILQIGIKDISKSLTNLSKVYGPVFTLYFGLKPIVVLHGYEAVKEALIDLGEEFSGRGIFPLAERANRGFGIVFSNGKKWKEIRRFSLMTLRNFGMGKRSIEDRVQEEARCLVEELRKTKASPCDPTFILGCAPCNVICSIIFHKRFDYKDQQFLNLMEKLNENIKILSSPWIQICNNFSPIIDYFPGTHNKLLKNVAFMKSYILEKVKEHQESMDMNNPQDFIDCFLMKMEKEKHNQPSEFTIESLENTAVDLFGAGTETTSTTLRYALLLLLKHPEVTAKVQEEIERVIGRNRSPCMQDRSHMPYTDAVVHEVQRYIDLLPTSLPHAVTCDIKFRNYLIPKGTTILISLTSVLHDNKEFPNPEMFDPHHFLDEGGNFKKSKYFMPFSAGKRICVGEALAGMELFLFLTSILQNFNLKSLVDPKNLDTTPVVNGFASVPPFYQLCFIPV
Sequence of CYP2C19 (P33261 whole entry): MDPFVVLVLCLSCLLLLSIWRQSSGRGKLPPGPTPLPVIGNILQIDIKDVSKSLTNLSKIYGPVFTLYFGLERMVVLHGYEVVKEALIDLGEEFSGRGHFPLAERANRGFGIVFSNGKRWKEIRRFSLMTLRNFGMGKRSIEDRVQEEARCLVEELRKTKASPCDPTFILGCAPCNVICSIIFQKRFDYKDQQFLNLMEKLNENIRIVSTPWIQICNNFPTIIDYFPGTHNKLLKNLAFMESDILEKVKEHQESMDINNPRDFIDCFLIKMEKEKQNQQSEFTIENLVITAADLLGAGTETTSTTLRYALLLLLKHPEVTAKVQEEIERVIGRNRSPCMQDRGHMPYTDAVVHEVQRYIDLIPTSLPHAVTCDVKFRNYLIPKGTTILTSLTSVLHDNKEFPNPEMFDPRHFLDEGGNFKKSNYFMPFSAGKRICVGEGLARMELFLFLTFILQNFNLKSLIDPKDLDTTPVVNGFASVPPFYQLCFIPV
Sequence of CYP3A4 (P08684 whole entry): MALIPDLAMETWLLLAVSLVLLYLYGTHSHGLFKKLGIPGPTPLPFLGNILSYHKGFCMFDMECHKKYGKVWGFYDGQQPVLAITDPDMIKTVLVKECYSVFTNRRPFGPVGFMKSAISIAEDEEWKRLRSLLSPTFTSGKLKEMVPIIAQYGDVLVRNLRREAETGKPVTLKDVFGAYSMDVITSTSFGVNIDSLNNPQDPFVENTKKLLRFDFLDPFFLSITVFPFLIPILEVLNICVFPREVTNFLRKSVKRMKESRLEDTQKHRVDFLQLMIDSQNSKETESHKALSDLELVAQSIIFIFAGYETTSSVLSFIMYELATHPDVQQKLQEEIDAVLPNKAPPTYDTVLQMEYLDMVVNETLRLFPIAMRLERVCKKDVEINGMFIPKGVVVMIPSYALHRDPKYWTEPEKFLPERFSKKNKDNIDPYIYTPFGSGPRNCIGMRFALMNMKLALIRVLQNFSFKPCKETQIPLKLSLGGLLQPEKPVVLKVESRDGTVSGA
Sequence of CYP2D6 (P10635 whole entry): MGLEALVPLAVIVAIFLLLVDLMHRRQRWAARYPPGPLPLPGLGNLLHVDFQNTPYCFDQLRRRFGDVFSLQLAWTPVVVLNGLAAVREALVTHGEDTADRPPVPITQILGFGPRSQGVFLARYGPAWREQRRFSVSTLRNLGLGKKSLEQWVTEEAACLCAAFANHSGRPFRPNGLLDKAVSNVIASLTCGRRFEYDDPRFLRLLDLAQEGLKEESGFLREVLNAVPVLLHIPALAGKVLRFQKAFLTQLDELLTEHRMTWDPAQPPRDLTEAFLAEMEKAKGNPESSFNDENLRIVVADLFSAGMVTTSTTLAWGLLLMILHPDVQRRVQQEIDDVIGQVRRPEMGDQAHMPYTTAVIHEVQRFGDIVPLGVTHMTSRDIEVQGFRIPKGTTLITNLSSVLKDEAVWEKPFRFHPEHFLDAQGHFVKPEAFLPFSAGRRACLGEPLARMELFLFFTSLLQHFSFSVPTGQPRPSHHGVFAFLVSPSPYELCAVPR
Sequence of Voltage-gated inwardly rectifying potassium channel KCNH2 (Q12809 whole entry): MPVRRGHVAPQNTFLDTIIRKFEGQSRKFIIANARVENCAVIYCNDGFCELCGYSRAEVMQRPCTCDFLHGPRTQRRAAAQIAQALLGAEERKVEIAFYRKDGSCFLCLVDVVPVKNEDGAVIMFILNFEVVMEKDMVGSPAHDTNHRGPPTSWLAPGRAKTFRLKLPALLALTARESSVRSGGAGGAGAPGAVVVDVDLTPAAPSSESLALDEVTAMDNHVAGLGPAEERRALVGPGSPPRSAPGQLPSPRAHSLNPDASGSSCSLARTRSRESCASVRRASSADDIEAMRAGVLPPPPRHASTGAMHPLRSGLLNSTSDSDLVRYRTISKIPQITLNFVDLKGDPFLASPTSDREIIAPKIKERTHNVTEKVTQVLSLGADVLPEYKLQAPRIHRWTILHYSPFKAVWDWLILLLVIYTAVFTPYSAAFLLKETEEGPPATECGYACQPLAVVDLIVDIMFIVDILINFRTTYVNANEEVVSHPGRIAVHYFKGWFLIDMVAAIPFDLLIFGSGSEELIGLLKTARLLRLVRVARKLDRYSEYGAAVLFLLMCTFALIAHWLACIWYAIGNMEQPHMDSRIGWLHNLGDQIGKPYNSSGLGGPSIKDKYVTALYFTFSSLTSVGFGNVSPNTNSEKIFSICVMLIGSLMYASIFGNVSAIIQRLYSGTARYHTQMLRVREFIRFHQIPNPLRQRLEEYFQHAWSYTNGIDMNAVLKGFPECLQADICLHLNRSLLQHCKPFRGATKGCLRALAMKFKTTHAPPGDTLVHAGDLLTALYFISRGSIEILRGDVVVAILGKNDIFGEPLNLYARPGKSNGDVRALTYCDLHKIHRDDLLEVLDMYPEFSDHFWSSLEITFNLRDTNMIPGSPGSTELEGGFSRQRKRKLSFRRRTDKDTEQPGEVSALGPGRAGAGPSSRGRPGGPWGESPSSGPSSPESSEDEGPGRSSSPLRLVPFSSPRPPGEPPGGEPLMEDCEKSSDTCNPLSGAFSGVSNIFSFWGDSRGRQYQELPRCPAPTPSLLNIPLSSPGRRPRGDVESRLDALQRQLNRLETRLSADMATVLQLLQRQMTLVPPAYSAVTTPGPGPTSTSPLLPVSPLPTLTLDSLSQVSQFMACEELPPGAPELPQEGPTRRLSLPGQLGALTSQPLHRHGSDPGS

SMILES: Cc1cc(-c2cnc(N)c3c(-c4ccc5scnc5c4)csc23)n(C)n1
- inhibition [1]: 84%

SMILES: N#Cc1c(Oc2ccc(F)c(NC(=O)Cc3cccc(C(F)(F)F)c3)c2)ccc2nc(NC(=O)C3CC3)sc12
- pKd [2]: 6.98

SMILES: COc1cc2c(cn1)N(C)C(=O)[C@@H](NC(=O)c1nc3n(n1)[C@H](c1ccccc1)CC3)CC2
- clearance [3]: 49.2 mL/min/kg
- half-life [4]: 31.8 min
- Vd [5]: 1.84 L/kg

SMILES: COc1nccnc1NS(=O)(=O)c1ccc(NC(=O)/C=C/c2ccc([N+](=O)[O-])s2)cc1
- pIC50 (HT-29): > 6.00 and 6.91
- pIC50 (Jurkat [6]): > 6.00

SMILES: CC(C)(C)C(=O)N1N=CC[C@H]1c1ccccc1
- pIC50 [7]: 8.52

SMILES: Cc1ccc(Oc2ccnc3cc(-c4cnn(C5CCNCC5)c4)ccc23)cc1
- pEC50 [8]: 7.68

SMILES: Cc1ccc(O)cc1Nc1ccnc2cc(-c3ccccn3)ccc12
- pEC50 [9]: 7.13

SMILES: CN1C(=O)[C@@H](NC(=O)c2nc(Cc3ccccc3)n[nH]2)COc2ccc(C#CC3CC3)cc21
- AUClast [10]: 15000 ng·h/mL
- Vdss [11]: 0.902 L/kg
- CL/F [12]: 3.54 mL/min/kg
- bioavailability [13]: 99%

SMILES: CN(c1ccc(NC(=O)Nc2ccc(OC(F)(F)F)cc2)cc1)c1ccnc(Nc2cccc(S(N)(=O)=O)c2)n1 [GW806742X]
- pIC50 [14]: > 7.30
- pEC50 (Jurkat [15]): 5.73

SMILES: Cl.O=S1(=O)C=C(C2CC2)c2cc3nccc(Nc4ccc5scnc5c4)c3cc21
- inhibition at 10 µM (CYP3A4): < 10%
- inhibition at 10 µM (CYP2D6): < 10%
- inhibition at 10 µM (CYP1A2): < 10%
- inhibition at 10 µM (CYP2C9): < 10%
- inhibition at 10 µM (CYP2C19): < 10%
- pIC50 [16]: < 5.00
- CLint scaled [17]: 212 mL/min/kg
- CLint scaled [18]: 67 mL/min/kg
- half-life [19]: 26 min
- half-life [20]: 36 min
- half-life [21]: 90 min
- AUC [22]: 8200 ng·h/mL
- Vd [23]: 4.4 L/kg
- clearance [24]: 33 mL/min/kg

SMILES: CC(C)S(=O)(=O)c1ccc2nccc(Nc3ccc4scnc4c3)c2c1
- inhibition [1]: 76%
